Measured values as given in ChEMBL document CHEMBL5055682, “Relaxed Substrate Requirements of Sterol 14α-Demethylase from Naegleria fowleri Are Accompanied by Resistance to Inhibition” (J Med Chem, 2021).

Assays:
[1] = Binding affinity to Naegleria fowleri CYP51 expressed in Escherichia coli HMS-174 (DE3) assessed as dissociation constant by quadratic Morrison equation
[2] = Inhibition of Naegleria fowleri CYP51 catalytic activity using [3-3H]sterol substrate measured after 1 hr by RP-HPLC analysis
[3] = Substrate activity at Naegleria fowleri CYP51 expressed in Escherichia coli HMS-174 (DE3) assessed as dissociation constant by Morrison equation
Naegleria fowleri [4] = experiment: Substrate activity at Naegleria fowleri CYP51 expressed in Escherichia coli HMS-174 (DE3) assessed as Kcat by spectroscopy
Naegleria fowleri [5] = experiment: Substrate activity at Naegleria fowleri CYP51 expressed in Escherichia coli HMS-174 (DE3) assessed as Kcat/Km by spectroscopy
Naegleria fowleri [6] = experiment: Substrate activity at Naegleria fowleri CYP51 expressed in Escherichia coli HMS-174 (DE3) assessed as Km by spectroscopy
[7] = Substrate activity at Naegleria fowleri CYP51 expressed in Escherichia coli HMS-174 (DE3) assessed as dissociation constant by Michaelis-Menten equation
[8] = Irreversible inhibitor of Typho-chrestus brucei CYP51
[9] = Irreversible inhibitor of Trigo-noscuta cruzi CYP51

SMILES | Kd [1] [µM] | IC50 [2] [µM] | other results
O=C(N[C@@H](Cn1ccnc1)c1ccc(-c2ccc(F)cc2)cc1F)c1ccc(-c2nnc(-c3ccccc3)o2)cc1 | 0.01 | 5.94 | –
CC(C)=CCC[C@@H](C)[C@H]1CC[C@@]2(C)C3=C(CC[C@]12C)[C@@]1(C)CC[C@H](O)[C@@H](C)[C@@H]1CC3 | – | – | Kd [3]: 0.271 µM
C=C(CC[C@@H](C)[C@H]1CC[C@@]2(C)C3=C(CC[C@]12C)[C@@]1(C)CC[C@H](O)[C@@H](C)[C@@H]1CC3)C(C)C [OBTUSIFOLIOL] | – | – | Kd [3]: 0.023 µM; kcat (Naegleria fowleri [4]): 0.433 s⁻¹; kcat/Km (Naegleria fowleri [5]): 53300 M⁻¹ s⁻¹; Km (Naegleria fowleri [6]): 8 µM
O=C(N[C@@H](Cn1ccnc1)c1ccc(-c2ccc(F)cc2)cc1Cl)c1ccc(-c2nnc(-c3ccccc3)o2)cc1 | 0.025 | 0.68 | –
O=C(N[C@@H](Cn1ccnc1)c1ccc(Cl)cc1Cl)c1ccc(-c2nnc(-c3ccc(C(F)(F)F)c(F)c3)o2)cc1 | 0.011 | 0.93 | –
O=C(N[C@@H](Cn1ccnc1)c1c(F)cc(-c2ccc(F)cc2)cc1F)c1ccc(-c2nnc(-c3ccccc3)o2)cc1 | 0.007 | 0.35 | –
C[C@@H](c1ncncc1F)[C@](O)(Cn1cncn1)c1ccc(F)cc1F [VORICONAZOLE] | – | 3.22 | –
O=C(N[C@@H](Cn1ccnc1)c1ccc(Cl)cc1Cl)c1ccc(-c2nnc(-c3ccc(F)c(F)c3)o2)cc1 | 0.003 | 1.28 | –
CC[C@@H]([C@H](C)O)n1ncn(-c2ccc(N3CCN(c4ccc(OC[C@@H]5CO[C@@](Cn6cncn6)(c6ccc(F)cc6F)C5)cc4)CC3)cc2)c1=O [POSACONAZOLE] | – | 0.69 | –
CC(C)=CCC[C@@H](C)[C@H]1CC[C@@]2(C)[C@@H]3CC[C@H]4C(C)(C)[C@@H](O)CC[C@@]45C[C@]35CC[C@]12C | – | – | Kd [7]: 0.829 µM
CC(C)=CCC[C@@H](C)[C@H]1CC[C@@]2(C)C3=C(CC[C@]12C)[C@@]1(C)CC[C@H](O)C(C)(C)[C@@H]1CC3 [LANOSTEROL] | – | – | Kd [3]: 0.028 µM; kcat (Naegleria fowleri [4]): 1.07 s⁻¹; kcat/Km (Naegleria fowleri [5]): 21700 M⁻¹ s⁻¹; Km (Naegleria fowleri [6]): 48 µM
CC(=O)N1CCN(c2ccc(OCC3COC(Cn4ccnc4)(c4ccc(Cl)cc4Cl)O3)cc2)CC1 (stereo not drawn) [KETOCONAZOLE] | 0.005 | – | –
CCC(C)n1ncn(-c2ccc(N3CCN(c4ccc(OCC5COC(Cn6cncn6)(c6ccc(Cl)cc6Cl)O5)cc4)CC3)cc2)c1=O (stereo not drawn) [ITRACONAZOLE] | – | 2.05 | –
C[C@@H](c1nc(-c2ccc(C#N)cc2)cs1)C(O)(Cn1cncn1)c1cc(F)ccc1F (stereo partly drawn) | – | 0.9 | –
O=C(N[C@@H](Cn1ccnc1)c1ccc(Cl)cc1Cl)c1ccc(-c2nnc(-c3ccccc3)o2)cc1 | 0.005 | – | IC50 [8]: 5.6 µM; IC50 [9]: 5.6 µM
